Active and inactive are the calls of the source. Cut-off read from the data, not from the text of the source, for most assays here: actives have a measured Kd and inactives only a lower limit.
Key:
[1] = biological target: Cyclin-dependent kinase 3 (Homo sapiens, UniProt Q00526)
[2] = biological target: Tyrosine-protein kinase HCK (Homo sapiens, UniProt P08631)
[3] = biological target: T1, Serine/threonine-protein kinase LATS1 (Homo sapiens, UniProt O95835)
T1 sequence (O95835 whole entry): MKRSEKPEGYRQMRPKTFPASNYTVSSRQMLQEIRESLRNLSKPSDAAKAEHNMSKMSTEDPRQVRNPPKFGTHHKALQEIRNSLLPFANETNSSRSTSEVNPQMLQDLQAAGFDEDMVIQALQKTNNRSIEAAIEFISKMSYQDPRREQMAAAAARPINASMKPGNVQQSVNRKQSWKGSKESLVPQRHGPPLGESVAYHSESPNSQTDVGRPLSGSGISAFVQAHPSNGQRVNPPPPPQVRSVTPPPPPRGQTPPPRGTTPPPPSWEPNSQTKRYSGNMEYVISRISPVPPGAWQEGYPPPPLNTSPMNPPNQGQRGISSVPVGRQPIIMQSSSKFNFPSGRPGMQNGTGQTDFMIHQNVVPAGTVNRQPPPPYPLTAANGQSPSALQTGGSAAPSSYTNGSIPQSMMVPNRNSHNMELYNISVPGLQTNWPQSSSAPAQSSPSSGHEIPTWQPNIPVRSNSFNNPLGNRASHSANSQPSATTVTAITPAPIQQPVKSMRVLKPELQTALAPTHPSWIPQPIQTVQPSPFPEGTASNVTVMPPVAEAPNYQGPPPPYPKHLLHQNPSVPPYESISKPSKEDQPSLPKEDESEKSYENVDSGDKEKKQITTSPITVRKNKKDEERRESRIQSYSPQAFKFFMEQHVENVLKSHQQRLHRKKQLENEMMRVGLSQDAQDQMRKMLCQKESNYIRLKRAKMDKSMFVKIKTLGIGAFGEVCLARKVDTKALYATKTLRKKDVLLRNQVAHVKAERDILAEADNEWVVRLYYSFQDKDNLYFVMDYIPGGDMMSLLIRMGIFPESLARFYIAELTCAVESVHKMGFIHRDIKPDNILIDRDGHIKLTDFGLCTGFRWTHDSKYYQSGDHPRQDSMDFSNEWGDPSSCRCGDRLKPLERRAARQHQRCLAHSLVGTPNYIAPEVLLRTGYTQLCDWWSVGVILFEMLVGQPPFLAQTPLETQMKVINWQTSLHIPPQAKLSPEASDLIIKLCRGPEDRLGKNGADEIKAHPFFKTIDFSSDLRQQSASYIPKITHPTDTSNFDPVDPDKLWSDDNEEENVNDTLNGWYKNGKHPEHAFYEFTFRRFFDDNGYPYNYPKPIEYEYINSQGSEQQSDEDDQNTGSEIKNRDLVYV

LIM domain kinase 2 = LIM domain kinase 2 (Homo sapiens, UniProt P53671)
LIM domain kinase 2, sequence (P53671 whole entry, the tested form may be a part): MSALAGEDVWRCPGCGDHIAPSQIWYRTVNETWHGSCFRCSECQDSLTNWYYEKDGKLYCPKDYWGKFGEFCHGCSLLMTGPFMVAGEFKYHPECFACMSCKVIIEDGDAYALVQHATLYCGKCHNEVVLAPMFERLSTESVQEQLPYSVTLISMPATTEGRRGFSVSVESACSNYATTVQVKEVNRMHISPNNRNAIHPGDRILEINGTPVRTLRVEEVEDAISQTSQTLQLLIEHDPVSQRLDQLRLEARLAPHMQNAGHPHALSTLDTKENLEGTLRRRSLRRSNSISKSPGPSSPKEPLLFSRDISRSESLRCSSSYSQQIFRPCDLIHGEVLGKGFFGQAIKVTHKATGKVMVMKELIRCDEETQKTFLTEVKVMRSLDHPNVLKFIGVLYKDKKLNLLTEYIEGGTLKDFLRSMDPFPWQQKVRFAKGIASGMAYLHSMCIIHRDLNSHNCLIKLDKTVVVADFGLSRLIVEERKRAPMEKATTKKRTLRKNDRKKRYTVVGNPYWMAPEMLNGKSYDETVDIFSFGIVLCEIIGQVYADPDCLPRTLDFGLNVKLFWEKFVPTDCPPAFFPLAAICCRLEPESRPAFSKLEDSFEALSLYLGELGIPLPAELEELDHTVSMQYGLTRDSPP

[4] = biological target: T2, Mitogen-activated protein kinase kinase kinase kinase 2 (Homo sapiens, UniProt Q12851)
T2 sequence (Q12851 whole entry): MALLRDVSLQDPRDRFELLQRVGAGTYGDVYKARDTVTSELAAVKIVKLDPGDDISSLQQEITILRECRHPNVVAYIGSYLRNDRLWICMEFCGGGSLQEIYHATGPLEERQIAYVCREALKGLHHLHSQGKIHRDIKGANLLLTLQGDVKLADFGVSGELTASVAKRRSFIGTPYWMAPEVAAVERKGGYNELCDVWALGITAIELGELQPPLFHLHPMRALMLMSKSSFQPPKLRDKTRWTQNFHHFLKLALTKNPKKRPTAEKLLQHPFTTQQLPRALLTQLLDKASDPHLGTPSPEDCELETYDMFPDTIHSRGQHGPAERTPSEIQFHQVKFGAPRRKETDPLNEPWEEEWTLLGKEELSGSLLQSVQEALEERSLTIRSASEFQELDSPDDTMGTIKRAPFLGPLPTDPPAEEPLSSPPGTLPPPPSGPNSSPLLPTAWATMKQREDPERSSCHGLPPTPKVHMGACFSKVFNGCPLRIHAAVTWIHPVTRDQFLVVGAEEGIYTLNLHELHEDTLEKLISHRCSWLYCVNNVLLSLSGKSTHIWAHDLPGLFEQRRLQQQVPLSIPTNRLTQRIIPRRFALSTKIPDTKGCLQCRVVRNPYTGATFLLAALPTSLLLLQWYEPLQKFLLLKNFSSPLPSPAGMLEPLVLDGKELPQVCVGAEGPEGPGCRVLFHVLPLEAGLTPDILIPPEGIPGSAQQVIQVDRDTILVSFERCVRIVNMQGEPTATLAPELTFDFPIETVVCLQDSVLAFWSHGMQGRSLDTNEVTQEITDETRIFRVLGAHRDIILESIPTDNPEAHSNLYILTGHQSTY

[5] = biological target: Mitogen-activated protein kinase 7 (Homo sapiens, UniProt Q13164)
Mitogen-activated protein kinase 7, sequence (Q13164 whole entry): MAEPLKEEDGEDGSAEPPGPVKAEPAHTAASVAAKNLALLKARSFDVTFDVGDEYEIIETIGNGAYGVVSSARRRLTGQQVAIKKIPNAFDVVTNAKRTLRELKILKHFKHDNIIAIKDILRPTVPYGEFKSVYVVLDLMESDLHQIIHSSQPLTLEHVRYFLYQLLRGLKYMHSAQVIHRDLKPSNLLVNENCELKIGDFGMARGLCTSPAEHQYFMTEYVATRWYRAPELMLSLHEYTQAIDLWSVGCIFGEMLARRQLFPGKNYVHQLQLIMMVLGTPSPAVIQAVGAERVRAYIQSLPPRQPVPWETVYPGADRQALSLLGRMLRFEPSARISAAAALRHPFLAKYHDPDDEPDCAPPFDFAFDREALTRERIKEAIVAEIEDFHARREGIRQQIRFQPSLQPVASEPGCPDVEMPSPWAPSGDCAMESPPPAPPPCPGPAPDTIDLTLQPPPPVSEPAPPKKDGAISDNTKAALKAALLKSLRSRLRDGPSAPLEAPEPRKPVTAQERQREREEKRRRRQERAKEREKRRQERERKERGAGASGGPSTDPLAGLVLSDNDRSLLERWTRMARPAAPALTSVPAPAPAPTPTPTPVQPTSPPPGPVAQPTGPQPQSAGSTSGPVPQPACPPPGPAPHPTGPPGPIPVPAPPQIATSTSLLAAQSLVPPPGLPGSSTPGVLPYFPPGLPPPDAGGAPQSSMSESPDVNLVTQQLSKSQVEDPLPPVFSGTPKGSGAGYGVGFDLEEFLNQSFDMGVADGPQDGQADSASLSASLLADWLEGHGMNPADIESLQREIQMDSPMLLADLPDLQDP

Midasin = Midasin (Homo sapiens, UniProt Q9NU22)
[6] = biological target: T3, Serine/threonine-protein kinase Nek2 (Homo sapiens, UniProt P51955)
T3 sequence (P51955 whole entry): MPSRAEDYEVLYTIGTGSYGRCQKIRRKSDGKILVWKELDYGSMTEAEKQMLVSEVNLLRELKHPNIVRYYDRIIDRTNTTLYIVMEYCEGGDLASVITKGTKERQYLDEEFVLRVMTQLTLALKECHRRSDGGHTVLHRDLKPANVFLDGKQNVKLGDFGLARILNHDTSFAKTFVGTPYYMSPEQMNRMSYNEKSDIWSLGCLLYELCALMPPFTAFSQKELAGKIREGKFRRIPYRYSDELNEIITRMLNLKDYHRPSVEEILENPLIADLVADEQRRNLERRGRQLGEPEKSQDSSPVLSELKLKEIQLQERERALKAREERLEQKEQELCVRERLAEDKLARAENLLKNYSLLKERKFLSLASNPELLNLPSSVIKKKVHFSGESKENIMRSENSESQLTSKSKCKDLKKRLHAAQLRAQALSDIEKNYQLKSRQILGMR

[7] = biological target: Protein kinase C delta type (Homo sapiens, UniProt Q05655)
Protein kinase C delta type, sequence (Q05655 whole entry): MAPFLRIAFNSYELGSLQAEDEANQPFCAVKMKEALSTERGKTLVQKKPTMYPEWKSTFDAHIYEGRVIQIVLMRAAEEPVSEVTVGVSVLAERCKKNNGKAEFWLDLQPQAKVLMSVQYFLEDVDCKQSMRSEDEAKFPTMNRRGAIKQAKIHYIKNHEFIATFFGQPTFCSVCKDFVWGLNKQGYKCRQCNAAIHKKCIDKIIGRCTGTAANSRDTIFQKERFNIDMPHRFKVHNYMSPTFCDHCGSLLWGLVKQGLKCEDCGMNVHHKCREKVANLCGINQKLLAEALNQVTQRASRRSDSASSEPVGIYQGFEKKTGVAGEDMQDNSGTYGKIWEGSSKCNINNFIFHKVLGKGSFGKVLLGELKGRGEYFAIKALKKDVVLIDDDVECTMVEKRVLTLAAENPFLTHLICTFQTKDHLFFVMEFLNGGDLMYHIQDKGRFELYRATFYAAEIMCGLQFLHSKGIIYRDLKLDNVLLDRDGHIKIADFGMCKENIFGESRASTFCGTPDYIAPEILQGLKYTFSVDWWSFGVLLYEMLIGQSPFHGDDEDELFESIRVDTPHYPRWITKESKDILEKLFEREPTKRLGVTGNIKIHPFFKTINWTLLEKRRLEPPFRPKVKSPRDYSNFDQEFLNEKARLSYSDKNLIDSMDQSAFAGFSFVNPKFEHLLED

[8] = biological target: Receptor-interacting serine/threonine-protein kinase 2 (Homo sapiens, UniProt O43353)
Receptor-interacting serine/threonine-protein kinase 2, sequence (O43353 whole entry): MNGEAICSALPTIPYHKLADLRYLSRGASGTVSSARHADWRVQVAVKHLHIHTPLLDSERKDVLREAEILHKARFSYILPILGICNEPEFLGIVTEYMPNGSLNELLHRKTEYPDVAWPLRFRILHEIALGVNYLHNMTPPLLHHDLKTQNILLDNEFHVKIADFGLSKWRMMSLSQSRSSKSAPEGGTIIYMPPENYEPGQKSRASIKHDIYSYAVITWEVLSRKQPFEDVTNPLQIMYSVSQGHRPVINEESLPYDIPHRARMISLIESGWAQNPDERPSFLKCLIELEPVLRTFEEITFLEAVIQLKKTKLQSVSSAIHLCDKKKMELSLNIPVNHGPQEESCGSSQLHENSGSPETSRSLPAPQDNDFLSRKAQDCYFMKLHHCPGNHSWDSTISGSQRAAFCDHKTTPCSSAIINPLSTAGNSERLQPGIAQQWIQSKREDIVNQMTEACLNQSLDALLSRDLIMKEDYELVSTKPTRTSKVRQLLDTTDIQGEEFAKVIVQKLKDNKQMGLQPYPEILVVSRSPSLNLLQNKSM

Measured: Kd
Note: in the data inactive means no Kd found up to 30 µM.

Cyclin-dependent kinase 3, sequence (Q00526 whole entry): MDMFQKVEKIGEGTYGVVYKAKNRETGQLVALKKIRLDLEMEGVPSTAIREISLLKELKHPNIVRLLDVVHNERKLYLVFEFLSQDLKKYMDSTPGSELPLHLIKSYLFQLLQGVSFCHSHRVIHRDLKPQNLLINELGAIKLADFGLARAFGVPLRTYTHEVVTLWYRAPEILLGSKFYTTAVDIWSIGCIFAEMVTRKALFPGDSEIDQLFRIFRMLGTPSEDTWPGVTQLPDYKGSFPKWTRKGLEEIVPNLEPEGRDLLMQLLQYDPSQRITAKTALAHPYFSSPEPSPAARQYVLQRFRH
Tyrosine-protein kinase HCK, sequence (P08631 whole entry): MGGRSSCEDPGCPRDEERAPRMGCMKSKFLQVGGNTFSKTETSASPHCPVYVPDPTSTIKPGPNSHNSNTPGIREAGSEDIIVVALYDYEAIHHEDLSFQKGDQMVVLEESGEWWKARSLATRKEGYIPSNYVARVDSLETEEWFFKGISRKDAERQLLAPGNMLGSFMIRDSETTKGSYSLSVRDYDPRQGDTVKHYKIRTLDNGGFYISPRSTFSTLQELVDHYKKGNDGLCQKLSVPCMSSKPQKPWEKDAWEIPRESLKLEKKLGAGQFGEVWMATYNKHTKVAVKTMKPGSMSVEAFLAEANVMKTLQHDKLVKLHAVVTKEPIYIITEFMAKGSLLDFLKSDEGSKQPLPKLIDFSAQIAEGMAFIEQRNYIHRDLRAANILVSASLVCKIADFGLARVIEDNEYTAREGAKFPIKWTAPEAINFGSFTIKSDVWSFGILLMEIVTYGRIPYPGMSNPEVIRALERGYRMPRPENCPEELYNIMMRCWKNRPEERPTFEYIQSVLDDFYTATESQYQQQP

C[C@@H](Nc1cc(F)cc(F)c1)c1cc(C(=O)N(C)C)cc2c(=O)cc(N3CCOCC3)oc12 [AZD-8186]
inactive: [1] > 30 µM | [2] > 30 µM | [3] > 30 µM | LIM domain kinase 2 > 30 µM | [4] > 30 µM | [5] > 30 µM | Midasin > 30 µM | [6] > 30 µM | [7] > 30 µM | [8] > 30 µM

Cc1ccc(NC(=O)c2ccc(CN3CC[C@H](N(C)C)C3)c(C(F)(F)F)c2)cc1Nc1nccc(-c2cncnc2)n1 [BAFETINIB]
inactive: [1] > 30 µM | [2] > 30 µM | [3] > 30 µM | LIM domain kinase 2 > 30 µM | [4] > 30 µM | [5] > 30 µM | Midasin > 30 µM | [6] > 30 µM | [7] > 30 µM
active: [8] 1.47 µM

CCS(=O)(=O)N1CC(CC#N)(n2cc(-c3ncnc4[nH]ccc34)cn2)C1 [BARICITINIB]
active: [7] 1.07 µM
inactive: [1] > 30 µM | [2] > 30 µM | [3] > 30 µM | LIM domain kinase 2 > 30 µM | [4] > 30 µM | [5] > 30 µM | Midasin > 30 µM | [6] > 30 µM | [8] > 30 µM

Cc1cc2c(F)c(Oc3ncnn4cc(OC[C@@H](C)OC(=O)[C@H](C)N)c(C)c34)ccc2[nH]1 [BRIVANIB ALANINATE]
inactive: [1] > 30 µM | [2] > 30 µM | [3] > 30 µM | LIM domain kinase 2 > 30 µM | [4] > 30 µM | [5] > 30 µM | Midasin > 30 µM | [6] > 30 µM | [7] > 30 µM | [8] > 30 µM

COC(=O)N[C@@H](C)CNc1nccc(-c2cn(C(C)C)nc2-c2cc(Cl)cc(NS(C)(=O)=O)c2F)n1 [ENCORAFENIB]
active: LIM domain kinase 2 0.096 µM | [8] 0.323 µM
inactive: [1] > 30 µM | [2] > 30 µM | [3] > 30 µM | [4] > 30 µM | [5] > 30 µM | Midasin > 30 µM | [6] > 30 µM | [7] > 30 µM

CO[C@H]1C[C@@H]2CC[C@@H](C)[C@@](O)(O2)C(=O)C(=O)N2CCCC[C@H]2C(=O)O[C@H]([C@H](C)C[C@@H]2CC[C@@H](OCCO)[C@H](OC)C2)CC(=O)[C@H](C)/C=C(\C)[C@@H](O)[C@@H](OC)C(=O)[C@H](C)C[C@H](C)/C=C/C=C/C=C/1C [EVEROLIMUS]
inactive: [1] > 30 µM | [2] > 30 µM | [3] > 30 µM | LIM domain kinase 2 > 30 µM | [4] > 30 µM | [5] > 30 µM | Midasin > 30 µM | [6] > 30 µM | [7] > 30 µM | [8] > 30 µM

COCCNCc1ccc(-c2cc3nccc(Oc4ccc(NC(=S)NC(=O)Cc5ccc(F)cc5)cc4F)c3s2)nc1 [GLESATINIB]
active: [2] 0.283 µM
inactive: [1] > 30 µM | [3] > 30 µM | LIM domain kinase 2 > 30 µM | [4] > 30 µM | [5] > 30 µM | Midasin > 30 µM | [6] > 30 µM | [7] > 30 µM | [8] > 30 µM

CC[C@H](Nc1ncnc2[nH]cnc12)c1nc2cccc(F)c2c(=O)n1-c1ccccc1 [IDELALISIB]
inactive: [1] > 30 µM | [2] > 30 µM | [3] > 30 µM | LIM domain kinase 2 > 30 µM | [4] > 30 µM | [5] > 30 µM | Midasin > 30 µM | [6] > 30 µM | [7] > 30 µM | [8] > 30 µM

Cn1cc(-c2ccc3nnc(C(F)(F)c4ccc5ncccc5c4)n3n2)cn1 [JNJ-38877605]
inactive: [1] > 30 µM | [2] > 30 µM | [3] > 30 µM | LIM domain kinase 2 > 30 µM | [4] > 30 µM | [5] > 30 µM | Midasin > 30 µM | [6] > 30 µM | [7] > 30 µM | [8] > 30 µM

Cc1c(F)cc(C(=O)NC2CC2)cc1-c1ccc(C(=O)NCC(C)(C)C)cn1 [LOSMAPIMOD]
inactive: [1] > 30 µM | [2] > 30 µM | [3] > 30 µM | LIM domain kinase 2 > 30 µM | [4] > 30 µM | [5] > 30 µM | Midasin > 30 µM | [6] > 30 µM | [7] > 30 µM | [8] > 30 µM

Cn1cc(-c2ccc(F)c(C(F)(F)F)c2)nc1C1CCN(c2ncnc3[nH]ncc23)CC1 [LY-2584702]
inactive: [1] > 30 µM | [2] > 30 µM | [3] > 30 µM | LIM domain kinase 2 > 30 µM | [4] > 30 µM | [5] > 30 µM | Midasin > 30 µM | [6] > 30 µM | [7] > 30 µM | [8] > 30 µM

O=C(O)[C@]1(Cc2cccc(Nc3nccs3)n2)CC[C@@H](Oc2cccc(Cl)c2F)CC1 [MK-5108]
inactive: [1] > 30 µM | [2] > 30 µM | [3] > 30 µM | LIM domain kinase 2 > 30 µM | [5] > 30 µM | Midasin > 30 µM | [6] > 30 µM | [7] > 30 µM | [8] > 30 µM
active: [4] 1.85 µM

Cc1ccc(-n2nc(C(C)(C)C)cc2NC(=O)NCc2cc(F)ccc2Oc2ccc3c(cnn3CCO)c2)cc1 [PEXMETINIB]
inactive: [1] > 30 µM | [2] > 30 µM | [3] > 30 µM | LIM domain kinase 2 > 30 µM | [4] > 30 µM | [5] > 30 µM | Midasin > 30 µM | [6] > 30 µM | [7] > 30 µM | [8] > 30 µM

CNC(=O)c1ccc(C)c(-n2c(C)cc(OCc3ccc(F)cc3F)c(Br)c2=O)c1 [PH-797804]
inactive: [1] > 30 µM | [2] > 30 µM | [3] > 30 µM | LIM domain kinase 2 > 30 µM | [4] > 30 µM | [5] > 30 µM | Midasin > 30 µM | [6] > 30 µM | [7] > 30 µM | [8] > 30 µM
